The Ki is the equilibrium dissociation constant of an inhibitor or competing ligand from its target. Low values mean tighter binding, high ones weaker binding.

In one assay the target is T1, Aurora-2 (Aurora A) (Homo sapiens, UniProt O14965).
T1 sequence (O14965 1-403): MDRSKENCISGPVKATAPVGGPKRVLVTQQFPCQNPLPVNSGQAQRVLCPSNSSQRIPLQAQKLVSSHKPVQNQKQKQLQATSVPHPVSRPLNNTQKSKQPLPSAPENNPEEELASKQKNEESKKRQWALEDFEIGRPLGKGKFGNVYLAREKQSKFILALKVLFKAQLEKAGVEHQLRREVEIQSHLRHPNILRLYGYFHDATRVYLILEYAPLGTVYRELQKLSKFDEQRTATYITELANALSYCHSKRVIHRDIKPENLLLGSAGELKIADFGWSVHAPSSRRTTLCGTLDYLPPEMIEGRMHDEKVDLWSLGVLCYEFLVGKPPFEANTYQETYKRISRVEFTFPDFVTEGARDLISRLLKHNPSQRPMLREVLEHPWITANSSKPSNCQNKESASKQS
In words: Aurora-2 (Aurora A) inhibition, coupled enzyme assay. Conditions: 400 μM ATP, 570 μM Kemptide, 40 nM Aurora-2, 30° C. It counts as biochemical. The procedure: Compounds were screened for their ability to inhibit Aurora-2 using a standard coupled enzyme assay (Fox et al., Protein Sci., (1998) 7, 2249). Assays were carried out in a mixture of 100 mM Hepes (pH7.5), 10 mM MgCl2, 1 mM DTT, 25 mM NaCl, 2.5 mM phosphoenolpyruvate, 300 μM NADH, 30 μg/ml pyruvate kinase and 10 μg/ml lactate dehydrogenase. Final substrate concentrations in the assay were 400 μM ATP (Sigma Chemicals) and 570 μM peptide (Kemptide, American Peptide, Sunnyvale, Calif.). Assays were carried out at 30° C. and in the presence of 40 nM Aurora-2.
An assay stock buffer solution was prepared containing all of the reagents listed above, with the exception of Aurora-2 and the test compound of interest. 55 μl of the stock solution was placed in a 96 well plate followed by addition of 2 μl of DMSO stock containing serial dilutions of the test compound (typically starting from a final concentration of 7.5 μM). The plate was preincubated for 10 minutes at 30° C. and the reaction initiated by addition of 10 μl of Aurora-2. Initial reaction rates were determined with a Molecular Devices SpectraMax Plus plate reader over a 10 minute time course. IC50 and Ki data were calculated from non-linear regression analysis using the Prism software package (GraphPad Prism version 3.0cx for Macintosh, GraphPad Software, San Diego Calif., USA).

Another assay concerns the target Aurora-1 (Aurora B) (Homo sapiens, UniProt Q96GD4). As to the kind of experiment: Aurora-1 (Aurora B) inhibition assay (radiometric). It counts as biochemical. As to conditions: 800 μM [γ-33P]-ATP, Kemptide, 25° C., 3 hours. The procedure: An assay buffer solution was prepared which consisted of 25 mM HEPES (pH 7.5), 10 mM MgCl2, 0.1% BSA and 10% glycerol. A 22 nM Aurora-B solution, also containing 1.7 mM DTT and 1.5 mM Kemptide (LRRASLG), was prepared in assay buffer. To 22 μL of the Aurora-B solution, in a 96-well plate, was added 2 μl of a compound stock solution in DMSO and the mixture allowed to equilibrate for 10 minutes at 25° C. The enzyme reaction was initiated by the addition of 16 μl stock [γ-^33P]-ATP solution (˜20 nCi/μL) prepared in assay buffer, to a final assay concentration of 800 μM. The reaction was stopped after 3 hours by the addition of 16 μL 500 mM phosphoric acid and the levels of ^33P incorporation into the peptide substrate were determined by the following method.
A phosphocellulose 96-well plate (Millipore, Cat no. MAPHNOB50) was pre-treated with 100 μL of a 100 mM phosphoric acid prior to the addition of the enzyme reaction mixture (40 μL). […] Levels of non-enzyme catalyzed background radioactivity were determined by adding 16 μL of the 500 mM phosphoric acid to control wells, containing all assay components (which acts to denature the enzyme), prior to the addition of the [γ-^33P]-ATP solution. Levels of enzyme catalyzed ^33P incorporation were calculated by subtracting mean background counts from those measured at each inhibitor concentration. […]

Each structure is given as a SMILES string.

Aurora-1 (Aurora B), sequence (Q96GD4 whole entry): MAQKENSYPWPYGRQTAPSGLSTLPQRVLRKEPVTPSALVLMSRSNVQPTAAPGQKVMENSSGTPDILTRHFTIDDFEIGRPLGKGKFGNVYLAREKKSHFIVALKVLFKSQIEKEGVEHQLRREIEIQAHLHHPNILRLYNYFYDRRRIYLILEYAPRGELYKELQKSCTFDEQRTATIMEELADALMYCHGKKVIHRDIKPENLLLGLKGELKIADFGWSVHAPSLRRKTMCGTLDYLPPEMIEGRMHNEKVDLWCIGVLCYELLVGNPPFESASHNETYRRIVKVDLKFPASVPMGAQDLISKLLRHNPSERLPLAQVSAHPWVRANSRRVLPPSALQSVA

For the compound `Cc1cnc(Nc2cc(N3CC[C@H](F)C3)cc(Sc3ccc(NC(=O)C4CC4)cc3)n2)s1` [Compound 1, (S)-N-(4-(4-(3-Fluoropyrrolidin-1-yl)-6-(5-methylthiazol-2-ylamino)pyridin-2-ylthio)phenyl)cyclopropanecarboxamide], the Ki at Aurora-2 (Aurora A) is less than 0.1 µM; at Aurora-1 (Aurora B), less than 1 µM.
The corresponding values for `Cc1cc(Nc2cc(N3CC[C@H](F)C3)cc(Sc3ccc(NC(=O)C4CC4)cc3)n2)[nH]n1` [Compound 2, (S)-N-(4-(4-(3-Fluoropyrrolidin-1-yl)-6-(3-methyl-1H-pyrazol-5-ylamino)pyridin-2-ylthio)phenyl)cyclopropanecarboxamide] are less than 0.1 µM and less than 1 µM.

The values are drawn from patent US20110060013A1, “THIAZOLES AND PYRAZOLES USEFUL AS KINASE INHIBITORS” (VERTEX PHARMACEUTICALS INCORPORATED, priority 2007, published 2011).
